Values of other authors, collected in patent publication US20250135014A1, “TARGETED LINEAR CONJUGATES COMPRISING POLYETHYLENEIMINE AND POLYETHYLENE GLYCOL AND POLYPLEXES COMPRISING THE SAME” (TARGIMMUNE THERAPEUTICS AG, priority 2021, published 2025).

Target: EGFR (Homo sapiens, UniProt P00533)
Details: Ruoslahti et al. 2012; Li et al. 2005

In the case of YHWYGYTPQNVI [GE-11], the Kd is given as 22 nM.
